Structures can show the parent of a compound that is named as a salt. Where two headings read alike, the source gives them in different places.
Tests used:
[1] = tested on: PANC-1 cells; assay: In-vitro cancer cell growth inhibition assay (MTT); format: cell-based; conditions: Homo sapiens, read-out: IC50 (nM) PANC-1
Protocol: (§1) The compounds of the present invention were evaluated for their ability to inhibit the growth of various cell line models of small cell lung cancer (SCLC), colon cancer, pancreatic cancer and triple negative breast cancer (TNBC) in-vitro. Details of the cell lines and their respective complete growth media are described in Table 3. The growth inhibition assay was carried out as described below. Briefly, cells in complete growth media were seeded in 96-well plates at appropriate cell densities (seeding density details described in Table 3) and incubated at 37° C., 5% CO2 (3-4 hours for NCI-H526, NCI-H69, NCI-H187 and overnight for the rest of the cells). Serial dilutions of test compound in DMSO were added to the cells while maintaining the final DMSO concentration of 0.4%-0.5% in the well. Plates were incubated for 96-144 h (the exact duration for each assay is described in Table 3) at 37° C., 5% CO2. Subsequently, MTT (final concentration 0.5 mg/mL in media) was incubated with the cells at 37° C., 5% CO2 for 4-5 hours. The formazan crystals were dissolved overnight at 37° C., 5% CO2 using 100 μL extractant (10% SDS in 0.01N HCl) and quantified using absorbance at 570 nm with reference wavelength 630 nm. Growth inhibition was represented as percent decrease in absorbance compared to vehicle treated cells.

[2] = tested on: MX-1 cells; assay: In-vitro cancer cell growth inhibition assay (MTT); format: cell-based; conditions: Homo sapiens, read-out: IC50 (nM) MX-1
Protocol: as §1

[3] = tested on: MDA-MB-231 cells; assay: In-vitro cancer cell growth inhibition assay (MTT); format: cell-based; conditions: Homo sapiens, read-out: IC50 (nM) MDA-MB-231
Protocol: as §1

[4] = tested on: NCI H69 cells; assay: In-vitro cancer cell growth inhibition assay (MTT); format: cell-based; conditions: Homo sapiens, read-out: IC50 (nM) NCI H69
Protocol: as §1

[5] = tested on: MDA-MB-468 cells; assay: In-vitro cancer cell growth inhibition assay (MTT); format: cell-based; conditions: Homo sapiens, read-out: IC50 (nM) MDA-MB-468
Protocol: as §1

[6] = tested on: NCI H526 cells; assay: In-vitro cancer cell growth inhibition assay (MTT); format: cell-based; conditions: Homo sapiens, NCI-H526, 96-144 h, read-out: IC50 (nM) NCI H526
Protocol: as §1

[7] = tested on: HT-29 cells; assay: In-vitro cancer cell growth inhibition assay (MTT); format: cell-based; conditions: Homo sapiens, read-out: IC50 (nM) HT-29
Protocol: as §1

[8] = Buffer stability (phosphate buffer, 37° C., HPLC); format: physicochemical
Protocol: The representative compounds were first dissolved in a minimum quantity of DMSO in a volumetric flask and diluted up to the mark with diluent (water: acetonitrile 30:70). […] After the elapsed time, the buffer samples were diluted 4 times with acetonitrile and injected into an HPLC system. Quantification of representative compounds was done by HPLC.
HPLC method: Chromatographic separation was achieved on a Hypersil BDS C18 (100×4.6 mm, 5 μ) column using 25 mM KH2PO4 buffer (pH 7 with TEA): acetonitrile, 90:10 v/v as mobile phase-A and 25 mM KH2PO4 buffer (pH 7 with TEA): acetonitrile 30:70 v/v as mobile phase-B. The gradient started with initially 5% B to 45% B in 10 mins followed by 80% B in 22 mins and held up to 25 mins and then returned to initial conditions at 26 mins and continued up to 30 mins. The injection volume was kept 10 μL and the flow rate was kept at 1.0 mL/min. The UV-Vis Detector was set at 220 nm, the column oven was set at 37° C. and the sample cooler was set at […]. Total chromatographic runtime was 30 min.

[9] = tested on: NCI H187 cells; assay: In-vitro cancer cell growth inhibition assay (MTT); format: cell-based; conditions: Homo sapiens
Protocol: as §1, with “Plates were incubated for 96-144 h (the exact duration for each assay is described in Table 3) at 37° C., 5% CO2.” left out

[10] = In-vitro stability in mice tumor lysate; conditions: for % Remaining in tumor lysate: spiked 2000 ng/mL, pH 5.5, 37° C.
Protocol: Aliquot of 100 μL were taken from stability samples in pre-labelled micro-centrifuge tubes. 5 μL of cetirizine working internal standard (5 μg/mL) was added to each tube and vortexed well. 1 mL acetonitrile was added to each tube and vortexed well and then centrifuge at 10000 RPM for 5 min at room temperature. The supernatant was collected in ria vials and evaporated to dryness under nitrogen stream. The samples were reconstituted in 1 mL of 0.1% formic acid in water: acetonitrile 30:70 v/v. The prepared samples were analyzed using LC-MS/MS method. Quantification was done against SN-38 standard, prepared at 2000 ng/mL concentration. SN-38 standard prepared by spiking 5 μL of SN-38 working standard to 95 μL of blank mice tumor homogenate to achieve 2000 ng/mL concentration and vortexed well and processed as described.
LC-MS/MS Method: Chromatographic separation was achieved on Inertsil C8-3 (50×4.6 mm, 5 μ) with a flow rate of 250 μL/min and an injection volume of 10 μL. The sample cooler was maintained at 10° C. The column oven temperature was set to 40° C. The mobile phase consisted of 0.1% formic acid in Milli Q water and acetonitrile in the ratio of 30:70 v/v, respectively. […] The overall chromatographic run time was 4.0 minutes.
Detection was performed by tandem mass spectrometry (TSQ Quantum, Discovery MAX, Thermo Electron Corporation) and peak areas were integrated using LCquan software version 2.9 QF1.
0 hr standard area was considered as 100% for calculation.

[11] = Comparison of solubility in water; format: physicochemical
Description: Comparison of Solubility of Compound I.4 in Water with SN-38

[12] = NCI-H187, read-out: IC50 (nM) NCI H187

Structure (SMILES): CCc1c2c(nc3ccc(O)cc13)-c1cc3c(c(=O)n1C2)COC(=O)[C@@]3(CC)OC(=O)OCCSSCCOC(=O)Nc1ccc(N2CCN(C)CC2)cc1.Cl [Compound I.2, 2-(2-{N-[4-(4-Methylpiperazin-1-yl)phenyl]carbamoyloxy}ethyldisulfanyl)ethyl [(4S)-4,11-diethyl-3,4,12,14-tetrahydro-9-hydroxy-1H-pyrano[3′,4′:6,7]indolizino[1,2-b]quinoline-3,14-(4H,12H)dione-4-yl] carbonate hydrochloride]
- IC50 ([1]; PANC-1, 96 h): 508 nM
- IC50 ([2]; MX1, 144 h): 5.9 nM
- IC50 ([3]; MDA-MB-231, 96 h): 112 nM
- IC50 ([4]; NCI-H69, 144 h): 1.3 nM
- IC50 ([5]; MDA-MB-468, 96 h): 6.6 nM
- IC50 [6]: 1.58 nM
- IC50 ([7]; HT-29, 96 h): 31 nM
- % of Unconverted Compounds of Formula I ([8]; pH 4.7, 0 hr, 200 μg/ml): 100%
- % of Unconverted Compounds of Formula I ([8]; pH 4.7, 2 hr, 200 μg/ml): 97.3%
- % of Unconverted Compounds of Formula I ([8]; pH 4.7, 4 hr, 200 μg/ml): 100%
- % of Unconverted Compounds of Formula I ([8]; pH 4.7, 6 hr, 200 μg/ml): 100%
- % of Unconverted Compounds of Formula I ([8]; pH 4.7, 8 hr, 200 μg/ml): 100%
- % of Unconverted Compounds of Formula I ([8]; pH 6.0, 0 hr, 200 μg/ml): 100%
- % of Unconverted Compounds of Formula I ([8]; pH 6.0, 2 hr, 200 μg/ml): 95.5%
- % of Unconverted Compounds of Formula I ([8]; pH 6.0, 4 hr, 200 μg/ml): 98.5%
- % of Unconverted Compounds of Formula I ([8]; pH 6.0, 6 hr, 200 μg/ml): 100%
- % of Unconverted Compounds of Formula I ([8]; pH 6.0, 8 hr, 200 μg/ml): 100%
- % of Unconverted Compounds of Formula I ([8]; pH 7.4, 0 hr, 200 μg/ml): 100%
- % of Unconverted Compounds of Formula I ([8]; pH 7.4, 2 hr, 200 μg/ml): 90.1%
- % of Unconverted Compounds of Formula I ([8]; pH 7.4, 4 hr, 200 μg/ml): 93.5%
- % of Unconverted Compounds of Formula I ([8]; pH 7.4, 6 hr, 200 μg/ml): 88.7%
- % of Unconverted Compounds of Formula I ([8]; pH 7.4, 8 hr, 200 μg/ml): 91.6%
- IC50 [9, 12]: 0.27 nM

Structure (SMILES): CCc1c2c(nc3ccc(O)cc13)-c1cc3c(c(=O)n1C2)COC(=O)[C@@]3(CC)OC(=O)OCCSSCCOC(=O)N(C)c1ccc(N2CCN(C)CC2)cc1 [Compound I.4, 2-(2-{N-Methyl-N-[4-(4-methylpiperazin-1-yl)phenyl]carbamoyloxy}ethyldisulfanyl)ethyl [(4S)-4,11-diethyl-3,4,12,14-tetrahydro-9-hydroxy-1H-pyrano[3′,4′:6,7]indolizino[1,2-b]quinoline-3,14-(4H,12H)dione-4-yl] carbonate dihydrochloride]
- % Remaining in tumor lysate ([10]; 0 hr): 100.0%
- % Remaining in tumor lysate ([10]; 1 hr): 0.0%
- % Remaining in tumor lysate ([10]; 2 hr): 0.0%
- % Remaining in tumor lysate ([10]; 4 hr): 0.0%
- % Remaining in tumor lysate ([10]; 6 hr): 0.0%
- % Remaining in tumor lysate ([10]; 8 hr): 0.0%
- time after incubation until cleaved to give active SN-38 ([10]; tumor lysate, 37° C.): ≤ 1 h
- IC50 ([2]; MX1, 144 h): 6.9 nM
- IC50 ([3]; MDA-MB-231, 96 h): 129 nM
- IC50 ([5]; MDA-MB-468, 96 h): 8.2 nM
- Solubility in water [11]: Solubility: 100 mg/11 ml in water.

Structure (SMILES): CCc1c2c(nc3ccc(O)cc13)-c1cc3c(c(=O)n1C2)COC(=O)[C@@]3(CC)OC(=O)OCCSSCCNC(=O)c1ccc(N2CCN(C)CC2)cc1 [Compound I.5, 2-(2-{4-[4-Methylpiperazin-1-yl]benzoylamino}ethyldisulfanyl) ethyl [(4S)-4,11-diethyl-3,4,12,14-tetrahydro-9-hydroxy-1H-pyrano[3′,4′:6,7]indolizino[1,2-b]quinoline-3,14-(4H,12H)dione-4-yl]carbonate dihydrochloride]
- IC50 ([1]; PANC-1, 96 h): 910 nM
- IC50 ([2]; MX1, 144 h): 4.6 nM
- IC50 ([3]; MDA-MB-231, 96 h): 119 nM
- IC50 ([4]; NCI-H69, 144 h): 1.3 nM
- IC50 ([5]; MDA-MB-468, 96 h): 9.3 nM
- IC50 [6]: 2.06 nM
- IC50 ([7]; HT-29, 96 h): 48.3 nM
- % of Unconverted Compounds of Formula I ([8]; pH 4.7, 0 hr, 100 μg/ml (footnote *)): 100%
- % of Unconverted Compounds of Formula I ([8]; pH 4.7, 2 hr, 100 μg/ml (footnote *)): 82.5%
- % of Unconverted Compounds of Formula I ([8]; pH 4.7, 4 hr, 100 μg/ml (footnote *)): 86.3%
- % of Unconverted Compounds of Formula I ([8]; pH 4.7, 6 hr, 100 μg/ml (footnote *)): 79.9%
- % of Unconverted Compounds of Formula I ([8]; pH 4.7, 8 hr, 100 μg/ml (footnote *)): 77.2%
- % of Unconverted Compounds of Formula I ([8]; pH 6.0, 0 hr, 100 μg/ml (footnote *)): 100%
- % of Unconverted Compounds of Formula I ([8]; pH 6.0, 2 hr, 100 μg/ml (footnote *)): 94.1%
- % of Unconverted Compounds of Formula I ([8]; pH 6.0, 4 hr, 100 μg/ml (footnote *)): 100%
- % of Unconverted Compounds of Formula I ([8]; pH 6.0, 6 hr, 100 μg/ml (footnote *)): 100%
- % of Unconverted Compounds of Formula I ([8]; pH 6.0, 8 hr, 100 μg/ml (footnote *)): 98.4%
- % of Unconverted Compounds of Formula I ([8]; pH 7.4, 0 hr, 100 μg/ml (footnote *)): 100%
- % of Unconverted Compounds of Formula I ([8]; pH 7.4, 2 hr, 100 μg/ml (footnote *)): 88.0%
- % of Unconverted Compounds of Formula I ([8]; pH 7.4, 4 hr, 100 μg/ml (footnote *)): 82.8%
- % of Unconverted Compounds of Formula I ([8]; pH 7.4, 6 hr, 100 μg/ml (footnote *)): 82.5%
- % of Unconverted Compounds of Formula I ([8]; pH 7.4, 8 hr, 100 μg/ml (footnote *)): 82.4%
- IC50 [9, 12]: 0.77 nM

Structure (SMILES): CCc1c2c(nc3ccc(OC(=O)N4CCC(N5CCCCC5)CC4)cc13)-c1cc3c(c(=O)n1C2)COC(=O)[C@]3(O)CC [Irinotecan HCl trihydrate, reference compound]
- IC50 ([1]; PANC-1, 96 hr, MTT): 23000 nM
- IC50 ([2]; MX1, MX-1, 144 hr, MTT): 5910 nM
- IC50 ([3]; MDA-MB-231, 96 hr, MTT): 21700 nM
- IC50 ([4]; NCI-H69, 144 hr, MTT): 473 nM
- IC50 ([5]; MDA-MB-468, 96 hr, MTT): 4580 nM
- IC50 ([6]; MTT): 750 nM
- IC50 ([7]; HT-29, 96 hr, MTT): 14000 nM
- IC50 ([9]; NCI-H187, MTT, read-out: IC50 (nM) NCI H187): 385 nM

— patent publication US20220242874A1, “CAMPTOTHECIN DERIVATIVES” (SUN PHARMA ADVANCED RESEARCH COMPANY LIMITED, priority 2019, published 2022)
